Like-named read-outs stand apart in the source and are kept apart here. Starred links: 1 amine or outer side, 2 acyl side, 3 side chain; linkers in the order of their positions; H or OH if unused. Non-standard residues stand in square brackets, D forms with d. Residues, ends and D or L forms follow the SMILES beside them. Groups on a side chain read outwards from the residue. *: point of attachment. C20 diacid = O=C(O)CCCCCCCCCCCCCCCCCCC(=O)*; γGlu = O=C(O)[C@H](CCC(=O)[*:2])N[*:1]; NMeI = CC[C@H](C)[C@H](NC)C(=O)O; Nle = CCCC[C@H](N)C(=O)O; AEEA = NCCOCCOCC(=O)O; Aib = CC(C)(N)C(=O)O
Assays:
hCRHR1 = target: T1, hCRHR1 (Homo sapiens, UniProt P34998); assay: HTRF cAMP assay, determination of hCRHR1 potency (peptide libraries 5 conc., purified peptides 11 conc.); type: cell-based
T1 sequence (P34998 24-415): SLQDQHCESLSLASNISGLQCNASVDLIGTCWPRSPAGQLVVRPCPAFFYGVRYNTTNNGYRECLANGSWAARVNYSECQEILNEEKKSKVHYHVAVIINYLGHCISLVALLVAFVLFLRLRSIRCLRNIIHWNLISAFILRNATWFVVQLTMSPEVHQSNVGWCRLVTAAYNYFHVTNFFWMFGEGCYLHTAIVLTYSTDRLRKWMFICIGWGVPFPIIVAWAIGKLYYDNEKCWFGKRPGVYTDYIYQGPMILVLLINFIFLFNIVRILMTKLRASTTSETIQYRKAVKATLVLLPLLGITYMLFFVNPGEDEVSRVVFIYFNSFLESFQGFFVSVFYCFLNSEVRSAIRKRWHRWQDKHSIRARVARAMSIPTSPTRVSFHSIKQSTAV
Summary of the method: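 CHO-K1 cells stably expressing human CRHR1, thawed from frozen stocks just before use, were stimulated in suspension with agonist peptides. cAMP was measured by HTRF competitive immunoassay (cryptate anti-cAMP antibody vs d2-cAMP).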

[1] = Chemical stability of purified peptides (RP-UHPLC main peak purity loss); type: physicochemical
Procedure: Chemical stability was tested at a concentration of approximately of 1.0 mg/ml peptide in the following vehicles: 50 mM phosphate buffer pH 7.5. Dissolved samples were incubated for at least 2 h at room temperature on a rocking table. The main peak purity at time zero (T0) was determined using reversed phase chromatography. The samples were incubated at 40°C for 14 days (T14) and 28 days (T28). The samples were analyzed with reversed phase chromatography and size exclusion chromatography.
Reversed Phase chromatography was performed on a Thermo Dionex Ultimate UHPLC system with UV detection at 215 nm) and equipped with a Kinetex column (1.7 µm, C8, 100 Å, 150 x 2.1 mm (00F-4499-AN)). Analysis was performed by gradient elution with buffer A (0.1% TFA in 95:5 H2O:acetonitrile) and buffer B (0.1% TFA in 5:95 H2O: acetonitrile) at a column temperature of 50 °C (gradient used 25-55%B over 40 min. Flowrate was 0.5 mL/min. The main peak purity was determined from the integrated chromatogram as the area under the main peak relative to the total peak area. The purity loss was calculated as the difference between the T0 and T14 time point and/or as the difference between the T0 and T28 time point.
The chemical stability of selected peptides was evaluated at varying pH's at 40° C over 28 days. Samples were prepared and analysed as described in procedure with the addition of pH adjusting samples to the targets indicated below. As a comparator,r commercially available semaglutide drug product (Ozempic®, Novo Nordisk) was included in the sample set.

hCRHR2 = target: T2, hCRHR2 (Homo sapiens, UniProt Q13324); assay: HTRF cAMP assay, determination of hCRHR2 potency (peptide libraries 5 conc., purified peptides 11 conc.); type: cell-based
T2 sequence (Q13324 1-411): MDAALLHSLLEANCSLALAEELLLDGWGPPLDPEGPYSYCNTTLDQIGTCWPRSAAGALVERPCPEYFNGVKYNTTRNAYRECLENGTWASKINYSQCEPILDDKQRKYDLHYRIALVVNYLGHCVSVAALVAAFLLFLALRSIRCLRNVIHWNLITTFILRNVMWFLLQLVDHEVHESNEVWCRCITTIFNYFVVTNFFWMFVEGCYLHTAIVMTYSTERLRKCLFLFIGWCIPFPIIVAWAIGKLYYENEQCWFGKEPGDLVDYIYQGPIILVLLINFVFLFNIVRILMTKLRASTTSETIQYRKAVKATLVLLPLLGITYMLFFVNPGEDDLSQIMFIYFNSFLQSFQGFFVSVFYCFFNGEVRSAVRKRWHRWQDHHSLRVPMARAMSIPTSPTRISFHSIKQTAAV
Summary of the method: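 CHO-K1 cells stably expressing human CRHR2 were thawed from frozen stocks immediately before use and assayed in suspension with agonist peptides. cAMP was measured by time-resolved FRET in a competitive immunoassay between cryptate-labelled anti-cAMP antibody and d2-labelled cAMP. EC50 values came from nonlinear regression, sigmoid variable-slope fit.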

[2] = pH 7.5
[3] = Thioflavin T fibril formation assay of purified peptides; type: physicochemical; design: key: Amyloid fibril formation detected by an increase in ThT fluorescence was denoted with "Yes"; samples without increasing ThT fluorescence hence not forming amyloid fibrils were denoted "No"
Procedure: Thioflavin T fibril formation assay: Peptides were dissolved as 267 µM in 50 mM phosphate buffer pH 7.5 for 2 h at room temperature on a rocking table. The samples were then divided into three replicates of 80 µl/well and mixed with 2 µl/well Thioflavin T (ThT)to a final concentration of 4 µM ThT in a black 384 well microplate with a clear bottom (Greiner #781096). The plate was inserted in a CLARIOstar Plus microplate reader (BMG Labtech) and fibril formation was measured as an increase in fluorescence emission at 480 nm (excitation at 450 nm) during 96 h at 40°C with cycles of 5 min rest and 5 min linearshaking at700 rpm.
Compounds were dissolved to 200 µM (ca 1.0 mg/ml) in 50 mM phosphate buffer with preparation and ThT assay performed as described in the "General procedure for determination of fibril formation of peptides." above. Furthermore, samples were adjusted to pH values as indicated below. Additional co-formulations of compounds with semaglutide were prepared by dissolving compounds to 200 µM in commercially available semaglutide drug product (Ozempic®); these co-formulations were adjusted to pH 7.4.

[4] = purified peptides, CHO-K1 cells stably expressing hCRHR1, cAMP HTRF, read-out: hCRHR1 EC50
[5] = pH 7.5, 40°C, 14 days, first value of cell
[6] = purified peptides, CHO-K1 cells stably expressing hCRHR2, cAMP HTRF, read-out: hCRHR2 EC50

| Structure (SMILES) | EC50 (hCRHR1; [4]) [nM] | Chemical stability at pH 7.5 after 14 days at 40°C (% degradation) [1, 5] | Chemical stability at pH 7.5 after 28 days at 40°C (% degradation) ([1]; pH 7.5, 40°C, 28 days, second value of cell) [%] | Selectivity ratio (hCRHR1/ hCRHR2) (hCRHR2; hCRHR1-EC50/hCRHR2-EC50) | EC50 (hCRHR2; [6]) [nM] | Solubility pH 7.5, target conc. =10 mg/mL (measured mg/mL) [2] [mg/mL] | Fibrillation (pH 7.5) ([3]; pH 7.5, ThT assay) | EC50 (hCRHR1; Table 5, purified peptides, read-out: hCRHR1 EC50) [nM] | EC50 (hCRHR1; library peptides, matched molecular pairs L vs Nle in position X^38, read-out: Potency hCRHR1 pEC50 (converted)) [nM] | Chemical stability at pH 7.5 after 14 days at 40°C (% degradation) ([1]; pH 7.5, 14 days, 40°C) [%] | Chemical stability at pH 7.5 after 28 days at 40°C (% degradation) ([1]; pH 7.5, 28 days, 40°C) [%] | Selectivity ratio (hCRHR1/ hCRHR2) (hCRHR2; Table 5) | EC50 (hCRHR2; Table 5, purified peptides, read-out: hCRHR2 EC50) [nM] | EC50 (hCRHR2; library peptides, matched molecular pairs L vs Nle in position X^38, read-out: Potency hCRHR2 pEC50 (converted)) [nM] | Fibrillation (pH 7.5) ([3]; pH 7.5) |
| --- | --- | --- | --- | --- | --- | --- | --- | --- | --- | --- | --- | --- | --- | --- | --- |
| CC[C@H](C)[C@H](N)C(=O)N[C@H](C(=O)N[C@@H](CC(C)C)C(=O)N[C@@H](CO)C(=O)N[C@@H](CC(C)C)C(=O)N[C@@H](CC(=O)O)C(=O)N[C@H](C(=O)N1CCC[C@H]1C(=O)N[C@H](C(=O)NCC(=O)N[C@@H](CC(C)C)C(=O)N[C@@H](CC(C)C)C(=O)N[C@@H](CCC(N)=O)C(=O)N[C@H](C(=O)N[C@@H](CC(C)C)C(=O)N[C@@H](CC(C)C)C(=O)N[C@@H](CCC(=O)O)C(=O)N[C@@H](CCC(N)=O)C(=O)N[C@@H](C)C(=O)N[C@@H](CCCNC(=N)N)C(=O)N[C@@H](C)C(=O)N[C@@H](CCCNC(=N)N)C(=O)N[C@@H](C)C(=O)N[C@@H](C)C(=O)N[C@@H](CCCNC(=N)N)C(=O)N[C@@H](CCC(=O)O)C(=O)N[C@@H](CCC(N)=O)C(=O)N[C@@H](C)C(=O)N[C@@H](CCCCNC(=O)COCCOCCNC(=O)COCCOCCNC(=O)CC[C@H](NC(=O)CC[C@H](NC(=O)CCCCCCCCCCCCCCCCCCC(=O)O)C(=O)O)C(=O)O)C(=O)N[C@H](C(=O)N[C@@H](CC(N)=O)C(=O)N[C@@H](CC(C)C)C(=O)N[C@@H](CCC(=O)O)C(=O)N[C@H](C(=O)N[C@@H](CC(C)C)C(=O)N[C@@H](C)C(=O)N[C@@H](CCC(=O)O)C(=O)N[C@H](C(N)=O)C(C)C)[C@@H](C)CC)[C@@H](C)O)[C@@H](C)CC)[C@@H](C)CC)C(C)C)C(C)C [SEQ ID NO: 12] (H-IVLSLDVPIGLLQILLEQARARAAREQAK([AEEA-AEEA-γGlu-γGlu-C20 diacid])TNLEILAEV-NH2) | > 5000 | -0.6% | -1.2 | >1136 | 4.4 | 9.1 | No |  |  |  |  |  |  |  |  |
| CC[C@H](C)[C@H](NC)C(=O)N[C@H](C(=O)N[C@@H](CC(C)C)C(=O)N[C@@H](CO)C(=O)N[C@@H](CC(C)C)C(=O)N[C@@H](CC(=O)O)C(=O)N[C@H](C(=O)N1CCC[C@H]1C(=O)N[C@H](C(=O)NCC(=O)N[C@@H](CC(C)C)C(=O)N[C@@H](CC(C)C)C(=O)N[C@@H](CCC(N)=O)C(=O)N[C@H](C(=O)N[C@@H](CC(C)C)C(=O)N[C@@H](CC(C)C)C(=O)N[C@@H](CCC(=O)O)C(=O)N[C@@H](CCC(N)=O)C(=O)N[C@@H](C)C(=O)N[C@@H](CCCNC(=N)N)C(=O)N[C@@H](C)C(=O)N[C@@H](CCCNC(=N)N)C(=O)N[C@@H](C)C(=O)N[C@@H](C)C(=O)N[C@@H](CCCNC(=N)N)C(=O)N[C@@H](CCC(=O)O)C(=O)N[C@@H](CCC(N)=O)C(=O)N[C@@H](C)C(=O)N[C@@H](CCCCNC(=O)COCCOCCNC(=O)COCCOCCNC(=O)CC[C@H](NC(=O)CC[C@H](NC(=O)CCCCCCCCCCCCCCCCCCC(=O)O)C(=O)O)C(=O)O)C(=O)NC(C)(C)C(=O)N[C@@H](CC(N)=O)C(=O)N[C@@H](C)C(=O)N[C@@H](CCC(=O)O)C(=O)N[C@H](C(=O)N[C@@H](CC(C)C)C(=O)N[C@@H](C)C(=O)N[C@@H](CCC(=O)O)C(=O)N[C@H](C(N)=O)C(C)C)[C@@H](C)CC)[C@@H](C)CC)[C@@H](C)CC)C(C)C)C(C)C [SEQ ID NO: 20] (H-[NMeI]VLSLDVPIGLLQILLEQARARAAREQAK([AEEA-AEEA-γGlu-γGlu-C20 diacid])[Aib]NAEILAEV-NH2) | > 5000 | -1.4 / ND % |  | >4167 | 1.2 | 10 | No |  |  |  |  |  |  |  |  |
| CCCC[C@H](NC(=O)[C@@H](NC(=O)[C@H](CCC(=O)O)NC(=O)[C@H](C)NC(=O)[C@H](CC(N)=O)NC(=O)[C@@H](NC(=O)[C@H](CCCCNC(=O)COCCOCCNC(=O)COCCOCCNC(=O)CC[C@H](NC(=O)CC[C@H](NC(=O)CCCCCCCCCCCCCCCCCCC(=O)O)C(=O)O)C(=O)O)NC(=O)[C@H](C)NC(=O)[C@H](CCC(N)=O)NC(=O)[C@H](CCC(=O)O)NC(=O)[C@H](CCCNC(=N)N)NC(=O)[C@H](C)NC(=O)[C@H](C)NC(=O)[C@H](CCCNC(=N)N)NC(=O)[C@H](C)NC(=O)[C@H](CCCNC(=N)N)NC(=O)[C@H](C)NC(=O)[C@H](CCC(N)=O)NC(=O)[C@H](CCC(=O)O)NC(=O)[C@H](CC(C)C)NC(=O)[C@H](CC(C)C)NC(=O)[C@@H](NC(=O)[C@H](CCC(N)=O)NC(=O)[C@H](CC(C)C)NC(=O)[C@H](CC(C)C)NC(=O)CNC(=O)[C@@H](NC(=O)[C@@H]1CCCN1C(=O)[C@@H](NC(=O)[C@H](CC(=O)O)NC(=O)[C@H](CC(C)C)NC(=O)[C@H](CO)NC(=O)[C@H](CC(C)C)NC(=O)[C@@H](NC(=O)[C@@H](N)[C@@H](C)CC)C(C)C)C(C)C)[C@@H](C)CC)[C@@H](C)CC)[C@@H](C)O)[C@@H](C)CC)C(=O)N[C@@H](C)C(=O)N[C@@H](CCC(=O)O)C(=O)N[C@H](C(N)=O)[C@@H](C)CC [compound 69] (H-IVLSLDVPIGLLQILLEQARARAAREQAK([AEEA-AEEA-γGlu-γGlu-C20 diacid])TNAEI[Nle]AEI-NH2) |  |  |  |  |  | 10 |  | > 5000 | 3980 | -0.5 | -8.8 | >9259 | 0.54 | 0.2 | No |
